According to the NIST ThermoML archive (doi:10.1021/je800047t):
“And” between values parts separate entries of the source, which are not always exact repeats. Identical values can stand only once. ± gives the expanded uncertainty stated by the source.

Assay: molar heat capacity at constant pressure
Conditions: 101.33 kPa, Small sample (50 mg) DSC

## O[C@@H]1CCCC[C@@H]1O [cis-1,2-cyclohexanediol]
174.3 K, Crystal 2
  molar heat capacity at constant pressure: 89.6 ± 2 J/K/mol
185.2 K, Crystal 2
  molar heat capacity at constant pressure: 92.7 ± 2.2 J/K/mol
193.1 K, Crystal 2
  molar heat capacity at constant pressure: 100 ± 3 J/K/mol
202.2 K, Crystal 2
  molar heat capacity at constant pressure: 101.1 ± 2.1 J/K/mol
215.9 K, Crystal 2
  molar heat capacity at constant pressure: 111 ± 2.4 J/K/mol
230.1 K, Crystal 2
  molar heat capacity at constant pressure: 121.1 ± 2.2 J/K/mol
248.1 K, Crystal 2
  molar heat capacity at constant pressure: 127.3 ± 2.3 J/K/mol
259.2 K, Crystal 2
  molar heat capacity at constant pressure: 134.9 ± 2.2 J/K/mol
266.2 K, Crystal 2
  molar heat capacity at constant pressure: 138.2 ± 2.1 J/K/mol
273.1 K, Crystal 2
  molar heat capacity at constant pressure: 141.4 ± 2.6 J/K/mol
278.2 K, Crystal 2
  molar heat capacity at constant pressure: 148.8 ± 2.5 J/K/mol
283 K, Crystal 2
  molar heat capacity at constant pressure: 151.1 ± 2.8 J/K/mol
288.2 K, Crystal 2
  molar heat capacity at constant pressure: 152 ± 3 J/K/mol and 154.2 ± 2.7 J/K/mol
293.2 K, Crystal 2
  molar heat capacity at constant pressure: 157.8 ± 2.6 J/K/mol and 157.6 ± 2.6 J/K/mol
298.1 K, Crystal 2
  molar heat capacity at constant pressure: 160.4 ± 2.9 J/K/mol
300.2 K, Crystal 2
  molar heat capacity at constant pressure: 162 ± 5 J/K/mol and 163.9 ± 2.7 J/K/mol
308.2 K, Crystal 2
  molar heat capacity at constant pressure: 168 ± 5 J/K/mol and 166.4 ± 2.8 J/K/mol
316 K, Crystal 2
  molar heat capacity at constant pressure: 171.9 ± 2.7 J/K/mol
323.3 K, Crystal 2
  molar heat capacity at constant pressure: 175 ± 2.8 J/K/mol
328.2 K, Crystal 2
  molar heat capacity at constant pressure: 177.2 ± 3.1 J/K/mol
333.2 K, Crystal 2
  molar heat capacity at constant pressure: 180.8 ± 3.1 J/K/mol
339.2 K, Crystal 2
  molar heat capacity at constant pressure: 184.3 ± 3.1 J/K/mol
344.1 K, Crystal 2
  molar heat capacity at constant pressure: 186.2 ± 3.1 J/K/mol
346.3 K, Crystal 2
  molar heat capacity at constant pressure: 190 ± 3.2 J/K/mol
348.1 K, Crystal 2
  molar heat capacity at constant pressure: 191.8 ± 3.1 J/K/mol
350.2 K, Crystal 2
  molar heat capacity at constant pressure: 192.5 ± 3.1 J/K/mol
363.1 K, Crystal 1
  molar heat capacity at constant pressure: 279.6 ± 4.3 J/K/mol
366.2 K, Crystal 1
  molar heat capacity at constant pressure: 284.9 ± 4.4 J/K/mol
367.2 K, Crystal 1
  molar heat capacity at constant pressure: 290.4 ± 4.5 J/K/mol
368.2 K, Crystal 1
  molar heat capacity at constant pressure: 292.8 ± 4.5 J/K/mol
378.1 K, Liquid
  molar heat capacity at constant pressure: 297.9 ± 4.6 J/K/mol
383.2 K, Liquid
  molar heat capacity at constant pressure: 300 ± 4.6 J/K/mol
385.2 K, Liquid
  molar heat capacity at constant pressure: 302.5 ± 4.7 J/K/mol
388 K, Liquid
  molar heat capacity at constant pressure: 304.1 ± 4.7 J/K/mol
393.2 K, Liquid
  molar heat capacity at constant pressure: 305 ± 5 J/K/mol
397.3 K, Liquid
  molar heat capacity at constant pressure: 306.3 ± 4.7 J/K/mol
403.1 K, Liquid
  molar heat capacity at constant pressure: 310.5 ± 4.8 J/K/mol
413.2 K, Liquid
  molar heat capacity at constant pressure: 312.8 ± 4.8 J/K/mol

## O[C@H]1CC[C@H](O)CC1 [trans-1,4-cyclohexanediol]
176.5 K, Crystal
  molar heat capacity at constant pressure: 100.6 ± 2.1 J/K/mol
183.2 K, Crystal
  molar heat capacity at constant pressure: 105.6 ± 2.2 J/K/mol
189.1 K, Crystal
  molar heat capacity at constant pressure: 109.5 ± 2.2 J/K/mol
198.9 K, Crystal
  molar heat capacity at constant pressure: 115.4 ± 2.3 J/K/mol
206.9 K, Crystal
  molar heat capacity at constant pressure: 115.6 ± 4.3 J/K/mol
215 K, Crystal
  molar heat capacity at constant pressure: 121 ± 2 J/K/mol
222.2 K, Crystal
  molar heat capacity at constant pressure: 124.6 ± 2.4 J/K/mol
230.2 K, Crystal
  molar heat capacity at constant pressure: 127.3 ± 2.5 J/K/mol
238.3 K, Crystal
  molar heat capacity at constant pressure: 135.4 ± 2.4 J/K/mol
258.3 K, Crystal
  molar heat capacity at constant pressure: 142.2 ± 2.7 J/K/mol
273.2 K, Crystal
  molar heat capacity at constant pressure: 145.6 ± 2.7 J/K/mol
278.1 K, Crystal
  molar heat capacity at constant pressure: 148.8 ± 2.6 J/K/mol and 150.6 ± 2.9 J/K/mol and 149 ± 3 J/K/mol
283.2 K, Crystal
  molar heat capacity at constant pressure: 151 ± 3 J/K/mol and 151.1 ± 2.9 J/K/mol
288.2 K, Crystal
  molar heat capacity at constant pressure: 154 ± 3 J/K/mol
293.2 K, Crystal
  molar heat capacity at constant pressure: 156.4 ± 2.9 J/K/mol and 157.4 ± 2.7 J/K/mol
303.2 K, Crystal
  molar heat capacity at constant pressure: 167 ± 2.9 J/K/mol
308.1 K, Crystal
  molar heat capacity at constant pressure: 168.1 ± 2.8 J/K/mol and 169.9 ± 4.7 J/K/mol
313.2 K, Crystal
  molar heat capacity at constant pressure: 173 ± 3 J/K/mol
323.3 K, Crystal
  molar heat capacity at constant pressure: 174 ± 3 J/K/mol
333.1 K, Crystal
  molar heat capacity at constant pressure: 177.4 ± 3 J/K/mol
343.2 K, Crystal
  molar heat capacity at constant pressure: 181.4 ± 3.1 J/K/mol and 183.9 ± 3 J/K/mol
353.1 K, Crystal
  molar heat capacity at constant pressure: 187.1 ± 3.2 J/K/mol
363.2 K, Crystal
  molar heat capacity at constant pressure: 190.5 ± 3.4 J/K/mol
373.2 K, Crystal
  molar heat capacity at constant pressure: 198 ± 4 J/K/mol
393.1 K, Liquid
  molar heat capacity at constant pressure: 310.7 ± 4.8 J/K/mol
403.2 K, Liquid
  molar heat capacity at constant pressure: 313 ± 6 J/K/mol
